# Laboratory results as given in patent US11607443B2, “Therapeutic peptides” (UNIVERSITE TOULOUSE III-PAUL SABATIER, priority 2016, dated 2023).
# Experiments:
# miR16-1 = experiment: Accumulation of miR16-1 in mesenchymal stem cells by RT-qPCR; assay type: cell-based, human; conditions: 10 μM for 3 h, MSCs from three patients, normalized to PPIA; FIG. 16
# Protocol: The mesenchymal stem cells were treated with 10 μM of miPEP//15a-16-1-TAT, treated with 10 μM of control peptide (ScmiPEP//21-1) or untreated (NT) for 3 hours. The amount of miR16-1 precursor in cells has been measured by quantitative RT-PCR. The measurement of the amount of miR16-1 precursor was normalized with respect to the PPIA household gene. Analyzes and statistics were performed with the Mann-Withney test (p-value: * p<0.05; ** p<0.01 and *** p<0.001).
# The effect of miPEP 15a-16-1 on miR16-1 accumulation was analyzed in mesenchymal stem cells (MSCs). The experiments were carried out with a fragment of 10 amino acids respectively corresponding to the N-terminal portion of the miPEP 15a-16-1 (=fragment miPEP//15 a-16-1).
# MSCs from three different patients were treated with 10 μM of miPEP//15a-16-1 fused to TAT peptide (miPEP//15a-16-1-TAT) for 3 h, then the amount of miR16-1 was measured by RT-qPCR.
# Peptides were synthesized by Smartbioscience and dissolved at 2 mM in water.
# The MSCs were seeded in wells of 12-well plates at 72,900 cells per well under 1 mL of PROLIF medium. The cells were then incubated for 72 h at 37° C. in a humid atmosphere with 5% CO2. […]
# The amount of miRNAs precursors in cells treated or not treated with miPEP was evaluated by quantitative RT-PCR with the SsoFast EvagGreen kit. […] PPIA was used as a reference gene to normalize quantitative RT-PCR. […]
# mesenchymal stem cells = experiment: Expression of osteoblast marker genes (iBSP, PTHR1, STMN2, OSTERIX) in mesenchymal stem cells by quantitative RT-PCR; assay type: cell-based, human; conditions: for osteoblast differentiation of mesenchymal stem cells: conclusion from increased expression of osteoblast marker genes
# Protocol: The respective effects of miPEP 125a-1 and miPEP 145-2 on differentiation of mesenchymal stem cells were analyzed by measuring the expression of the iBSP, PTHR1, STMN2 and OSTERIX genes that correspond to markers of osteogenesis and of osteoblast differentiation (Chiellini et al., Biochem Biophys Res Commun, 374(1):64-8, 2008; Cordonnier et al., Tissue Eng, 17(3): 249-259, 2011).
# The experiments were carried out with two fragments of 10 amino acids respectively corresponding to the N-terminal part of the miPEP 125a-1 (=miPEP//125a-1 fragment) and to the N-terminal part of the miPEP 145-2 (=fragment miPEP//145-2).
# Mesenschymal stem cells from 4 different donors were cultured for 24 hours in PROLIF medium (αMEM+10% FCS) with or without miPEP//then for 3 days in DIF+BMP4 medium (αMEM+2% FCS+b-Glycerophosphate+Ascorbic acid+BMP4), DIF ΔBMP4 medium (αMEM+2% FCS+b-Glycerophosphate+Ascorbic acid) or PROLIF medium (αMEM+10% FCS), with or without miPEP//.
# The expression of the iBSP, PTHR1, STMN2 and OSTERIX genes was then measured in mesenchymal stem cells cultured in the presence or absence of a miPEP*.
# a. Composition of Culture Media • Proliferation medium (PROLIF): αMEM+10% FBS+1% P/S • Differentiation medium+BMP4 (DIF+BMP4): αMEM+2% FBS+1% P/S+βglycerophosphate (10 mM)+Ascorbic acid (50 μM)+BMP4 (50 ng/mL) • Differentiation medium without BMP4 (DIF ΔBMP4): αMEM+2% FBS+1% P/S+βglycerophosphate (10 mM)+Ascorbic acid (50 μM)
# The miPEP//145-2 was synthesized by Smartbioscience and dissolved at 2 mM in water. The miPEP//125a-1 was synthesized by Smartbioscience and dissolved in water+0.1% ammonium.
# The mesenchymal stem cells were seeded in 12-well plates at 70,000 cells/well in 1 mL of PROLIF medium. The cells were then incubated for 72 h at 37° C. in a humid atmosphere with 5% CO2.
# After 72 hours of incubation, the cells were pre-treated with 100 μM of miPEP or “scramble” peptide diluted in PROLIF medium, and then incubated at 37° C. for 24 hours. In parallel, cells treated with PROLIF±water or water+0.1% ammonium medium were used as a negative control.
# For 3 days, the cells were treated every 24 h with 100 μM of diluted miPEP either in DIF+BMP4 medium, or in DIF ΔBMP4 medium, or in PROLIF medium. Cells untreated or treated with water or water+0.1% ammonium were used as controls. The cells are incubated at 37° C.
# After 3 days of treatment, the culture supernatants were removed, the cell mats were washed once with PBS, and then the plates were frozen at −80° C. until the total RNAs were extracted.
# Total RNAs were extracted according to the supplier's recommendations with the miRNeasy microkit kit (Qiagen).
# The RNAs were reverse transcribed with the High Capacity cDNA reverse transcription kit (Applied Biosystem). 600 ng of RNA were added to 2 μL of RT buffer (10×), 2 μL of Random primer (10×), 0.8 μL of dNTPs (25×), 0.5 μL of RNAse OUT (40 U/μL) and 1 μL of multiscribe reverse transcriptase (50 U/μL) in a total volume of 20 μL. The reverse transcription reaction was carried out at 25° C. for 10 min and then 42° C. for 2 h. The activity of the enzyme was stopped by incubating the mixture at 85° C. for 5 min.
# The expression of osteoblastic transcription factors iBSP, PTHR1, STMN2 and OSTERIX was evaluated by quantitative RT-PCR with the SsoFast EvagGreen kit. For the RT-PCR reaction, 3 μL of […] diluted 1/8 were added to 1× of SsoFast EvaGreen, 10 μM of each primer and RNase free water in a final volume of 10 μL. The reaction was subjected to the following temperatures: 3 min pre-amplification at 95° C., 40 cycles of 10 sec at 95° C. and […] in a thermal cycler (CFX96 Real-time PCR detection system, Biorad). PPIA was used as a reference gene to normalize quantitative RT-PCR.
# For all PCR reactions, two replicates were used for each biological sample.
# Nude mice = experiment: In vivo bone formation by subcutaneous implantation of MSCs + HA/β-TCP biomaterial in Nude mice
# Protocol: For D. and F. conditions, mice also received regular injections (once a week) of either miPEP//125a-1 (D) or scramble miPEP (F) during the study. After 4 weeks, the mice are euthanized and the grafts were then isolated, fixed, included in methacrylate, cut and treated for histology. The cuts were scanned (NDPview) and bone formation (dark grey) is evaluated (A to F) and is also quantified (G) using the Fiji image analysis software and the total area of new bone is reported to the total area of the cut
# For G, the y-axis indicates the percentage of bone formation and the statistical analyzes were performed with the paired t-test (p-value: * p<0.05; ** p<0.01 and *** p<0.001).
# All experiments on animals were done in accordance with directive 2010/63/EU and after validation of protocols by the Animal Ethics Committee (Toulouse, N: 86/809 EEC). A total of 6-8 mice was used per group. The cells cultured osteo-induced or not according to the methods described elsewhere (see Example 1), were then suspended for 1 to 2 h in the culture medium also containing granules of biomaterials in the ratio of 2×10^6 cells/50 mg of biomaterial. These biomaterials were biphasic inorganic calcium phosphate (BCP), composed of hydroxyapatite (HA) and beta-tricalcium phosphate (β-TCP) in a ratio of 20/80, ranging in size from 0.5 to 1 mm (sold by Biomatlante, Vigneux de Bretagne, France). The porosity of these biomaterials (% vol) was 75±5% of pores of which 70% (0 to 10 μm), 20% (10 to 100 μm) and 10% (100 to 300 μm). They were sterilized by autoclaving.
# The biomaterial alone has been implanted as a negative control. Female Nude mice (RjOrl: NMRI-Foxnnul/Foxnlnu) (Laboratoires Janvier, Saint-Berthevin, France) are generally anesthetized by inhalationn of isoflurane. Two implants (cells+biomaterials) are subcutaneously placed in the back of the mice on each side of the spine. After 4 weeks, the treated animals are sacrificed. The implants are then removed and fixed in a buffered 4% formalin solution. Some groups of mice will also receive regular injections (once a week) during the study either of the miPEP//125a-1 (SEQ ID NO: 11 752) or the control miPEP (scramble ScmiPEP//125a, SEQ ID NO: 11 758).
# These implants were then decalcified in a solution of 4.13% EDTA/0.2% PFA in PBS for 96 hours at 50° C. using an automatic microwave for demineralization (KOS Histostation, Milestone Med. Corp. USA). The samples were dehydrated in ethanol and then butanol baths in an automatic dehydration apparatus (MicromMicrotech, Lyon, France). The samples were then immersed in paraphine (Histowax, Histolab, Gottenburg, Sweden). Fine sections ([…]) were made using a microtome (Leica RM2255, Leica Biosystems, Nanterre, France). The sections were stained by the Masson trichrome technique and the collagen in light green.
# The photos were obtained by a scan of each cut (NanoZoomer, Hamamatsu, Photonics, Hamamatsu City, Shizuoka, Japan) and observed virtually (NDP view, Hamamatsu). The histomorphometry of the images was done using the ImageJ software and the neoformed bone percentage was calculated by explant area. 3 to 4 sections per explant were analyzed and quantified.
# [1] = DIF ΔBMP4 medium, 100 μM miPEP, 4 days, FIGS. 7 and 9
# [2] = DIF ΔBMP4 medium, 100 μM miPEP, 4 days, FIGS. 8 and 10
# [3] = DIF+BMP4 medium, 100 μM miPEP, 4 days, FIGS. 4 and 6
substance,measurement,setting,value
MFKHRFFYMH-YGRKKRRQRRR [miPEP//15a-16-1-TAT],amount of miR 16-1,miR16-1,increase
"MSLCLSPSLT [miPEP//125a-1, fragment of 10 amino acids corresponding to the N-terminal part of the miPEP 125a-1]",expression of the STMN2 gene,mesenchymal stem cells; [1],increases
same,expression of the OSTERIX gene,mesenchymal stem cells; [2],increases
same,expression of the iBSP gene,"mesenchymal stem cells; DIF+BMP4 medium, 100 μM miPEP, 4 days, FIG. 2",increases
same,expression of the PTHR1 gene,"mesenchymal stem cells; DIF+BMP4 medium, 100 μM miPEP, 4 days, FIG. 3",increases
same,expression of the OSTERIX gene,"mesenchymal stem cells; DIF+BMP4 medium, 100 μM miPEP, 4 days, FIG. 5",increases
same,expression of the STMN2 gene,mesenchymal stem cells; [3],increases
same,osteoblast differentiation of mesenchymal stem cells,mesenchymal stem cells,promote osteoblast differentiation
same,"bone formation, quantified neoformed bone","Nude mice; MSCs only pre-treated in vitro (C) versus untreated MSCs (B), p=0.0241, FIG. 17G",significantly higher
same,"bone formation, quantified neoformed bone","Nude mice; MSCs pre-treated in culture (C) versus MSCs pre-treated with scramble miPEP (E), p=0.0499, FIG. 17G",significantly more bone formation
same,"bone formation, quantified neoformed bone","Nude mice; MSCs pre-treated in vitro and then in vivo (D) versus untreated MSCs (B), p=0.0203, FIG. 17G",significantly higher
same,"bone formation, qualitative (histology images)","Nude mice; MSCs pre-treated with miPEP (FIG. 17C-D) versus scramble miPEP (FIG. 17E-F), 4 weeks",greater
same,ability of human MSCs to form bone in vivo,Nude mice; MSCs previously treated in vitro,increased
same,effect of in vivo injection of the miPEP on the induction of bone formation,"Nude mice; pre-treated MSCs plus weekly injection (D) versus MSCs only pre-treated (C), FIG. 17G",without consequence
"MVGLNPPLWQ [miPEP//145-2, fragment of 10 amino acids corresponding to the N-terminal part of the miPEP 145-2]",expression of the STMN2 gene,mesenchymal stem cells; [1],increases
same,expression of the OSTERIX gene,mesenchymal stem cells; [2],increases
same,expression of the STMN2 gene,mesenchymal stem cells; [3],increases
same,expression of the STMN2 gene,"mesenchymal stem cells; PROLIF medium, 100 μM miPEP, 4 days, FIG. 11",increases
same,osteoblast differentiation of mesenchymal stem cells,mesenchymal stem cells,promote osteoblast differentiation
